Structures are written as SMILES.

Sequence of PFKFB4 (Q16877 whole entry): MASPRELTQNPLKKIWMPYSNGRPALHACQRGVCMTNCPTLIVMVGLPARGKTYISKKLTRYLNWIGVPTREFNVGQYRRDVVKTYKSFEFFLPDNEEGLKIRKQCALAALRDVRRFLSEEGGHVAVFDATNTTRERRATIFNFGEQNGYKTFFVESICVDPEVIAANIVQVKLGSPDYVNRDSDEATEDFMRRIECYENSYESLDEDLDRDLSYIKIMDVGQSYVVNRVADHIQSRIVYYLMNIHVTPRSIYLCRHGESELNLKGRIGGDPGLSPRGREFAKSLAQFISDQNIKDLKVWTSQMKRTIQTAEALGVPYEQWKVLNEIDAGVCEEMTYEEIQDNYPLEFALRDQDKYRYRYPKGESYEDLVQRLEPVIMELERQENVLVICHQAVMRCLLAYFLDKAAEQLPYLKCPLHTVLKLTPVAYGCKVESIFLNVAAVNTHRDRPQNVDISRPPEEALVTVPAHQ
Sequence of PFKFB3 (Q16875 whole entry): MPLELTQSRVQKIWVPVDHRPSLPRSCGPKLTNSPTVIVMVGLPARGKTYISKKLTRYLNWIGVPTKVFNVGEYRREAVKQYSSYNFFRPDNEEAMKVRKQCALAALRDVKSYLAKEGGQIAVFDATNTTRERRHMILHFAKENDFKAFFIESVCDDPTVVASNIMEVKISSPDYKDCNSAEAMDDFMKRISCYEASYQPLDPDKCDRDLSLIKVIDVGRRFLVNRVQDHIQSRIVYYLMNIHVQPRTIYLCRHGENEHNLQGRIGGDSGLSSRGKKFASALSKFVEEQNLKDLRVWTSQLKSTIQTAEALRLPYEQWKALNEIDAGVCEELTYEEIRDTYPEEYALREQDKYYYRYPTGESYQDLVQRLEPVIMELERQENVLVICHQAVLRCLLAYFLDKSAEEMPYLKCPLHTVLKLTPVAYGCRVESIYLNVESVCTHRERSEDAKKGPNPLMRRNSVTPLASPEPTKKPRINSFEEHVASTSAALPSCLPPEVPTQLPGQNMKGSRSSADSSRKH

One test has as its target PFKFB3 (Homo sapiens (Human), UniProt Q16875). The test can be described thus: PFKFB3 kinase activity, Method B (ADP-Glo Kinase Assay). The test is classed as biochemical.
Details: not given
An excerpt: (§1) The PFKFB3 (placenta form) and PFKFB4 were produced and purified to homogeneity from E. coli at Biovitrum and at Sprint Bioscience. All other reagents were purchased from commercial sources. Two independent methods have been used for determination of the kinase activity of PFKFB3 (Method A and Method B). Method B has been used for determination of the kinase activity of PFKFB4.
(§2) Method B: The kinase activity of the bi-functional enzyme is readily quantified based on the production of ADP and F-2,6-P2 from ATP and F6P. The ADP is detected with a kit, ADP-Glo™ Kinase Assay^(a-e), from Promega. The assay is a luminescent ADP detection assay that measures kinase activity by quantifying the amount of ADP produced during the kinase reaction. The assay is performed in two steps; first, after the kinase reaction, an equal volume of ADP-Glo™ Reagent is added to terminate the kinase reaction and deplete the remaining ATP. Second, the Kinase Detection Reagent is added to simultaneously convert ADP to ATP and allow the newly synthesized ATP to be measured using a luciferase/luciferine reaction. The light generated is measured using a luminescence counter (1450 MicroBeta TriLux).
(§3) The assay was performed in white 384-well microtiter plates (OptiPlate, 6007299, PerkinElmer) by consecutive additions of 0.1 μL of a test compound solution (serial diluted in DMSO from compound DMSO stock solution and dispensed by acoustic dispensing from UV-star 384-well plate 7360153, VWR), 5 μL of enzyme solution and 5 μL of a substrate (fructose-6-phosphate (F6P) and adenosine-5′-triphosphate (ATP)) containing solution. […] Four reference dose response curves, one of them being the QC compound, were included in row O1-2, P1-2, and serial diluted as the test compounds. The final concentrations of all reagents in a total assay volume of 10.1 μL per well were: • 50 mM Tris-HCl at pH 8.0 • 10 mM MgCl2 • 5 mM Na2HPO4 at pH 8.0 • 81.48 nM PFKFB3 or 145 nM PFKFB4 • 8 μM ATP • 100 μM F6P (acid treated and then neutralized to remove any contaminating F-2,6-P2; see Van Schaftingen, 1984) • 0.005% Tween-20 • 1 mM dithiothreitol (DTT) • A test compound at various concentrations or controls (final DMSO concentration 0.99%)
(§4) Enzyme, compounds and controls were pre-incubated at room temperature for 15 min before the addition of substrate solution. The enzymatic reaction was allowed to proceed for 20 min (PFKFB3) or 40 min (PFKFB4) at room temperature. The reaction was terminated by the addition of 10 μL of ADP-Glo™ Reagent to all wells and the plate was incubated for 40 min at room temperature. After addition of 20 μL Kinase Detection Reagent to all wells the plate was incubated for 30 min at room temperature, followed by measurement in 1450 MicroBeta TriLux. All plates were centrifuged after each addition (room temperature, short spin, 500 RPM, Megafuge 1.0 Heraeus Instruments).
(§5) The inhibitory potency or IC50 values of test compounds on the kinase activity of PFKFB3 or PFKFB4 were calculated using a four-parameter model (model 205) in XLfit (IDBS ActivityBase XE Runner).
In general terms: ADP-Glo turns the ADP formed in a reaction into a luminescent signal.
As to `O=S(=O)(Nc1cccc(-c2nnn[nH]2)c1)c1ccc(-c2cc(F)cc(F)c2)s1` [Example 23, 5-(3,5-Difluorophenyl)-N-[3-(1H-tetrazol-5-yl)phenyl]thiophene-2-sulfonamide], half-maximal inhibition (IC50) was put at 620 nM.
`Cc1c(S(=O)(=O)Nc2ccc(O)c(C(=O)O)c2)sc2ccc(Cl)cc12` [Example 138, 5-{[(5-Chloro-3-methyl-1-benzothiophen-2-yl)sulfonyl]amino}-2-hydroxybenzoic acid] gave an IC50 of 9030 nM.
Same read-out and setting: in the case of `O=S(=O)(Nc1cccc(-c2nnn[nH]2)c1)c1ccc(-c2ccccc2)s1` [Example 60, 5-Phenyl-N-[3-(1H-tetrazol-5-yl)phenyl]thiophene-2-sulfonamide] it was 1300 nM.
Still for that read-out and setting: in the case of `O=C(O)c1cccc(NS(=O)(=O)c2cc(-c3ccccc3O)c(Cl)s2)c1O` [Example 137, 3-({[5-Chloro-4-(2-hydroxyphenyl)thiophen-2-yl]sulfonyl}amino)-2-hydroxybenzoic acid] it was 5180 nM.

Another test concerns the target PFKFB4 (Homo sapiens (Human), UniProt Q16877). Put plainly: PFKFB4 kinase activity, Method B (ADP-Glo Kinase Assay). The test is classed as biochemical.
Details: not given
Description: as §1, §2, §3, §4, §5
Take `COc1cccc2c(C)c(S(=O)(=O)Nc3cccc(C(=O)O)c3)sc12` [Example 42, 3-{[(7-Methoxy-3-methyl-1-benzothien-2-yl)sulfonyl]amino}benzoic acid]: the IC50 is 420 nM.
Same read-out and setting: with `O=S(=O)(Nc1cccc(-c2nnn[nH]2)c1)c1ccc(-c2ccc(F)c(Cl)c2)s1` [Example 102, 5-(3-Chloro-4-fluorophenyl)-N-[3-(1H-tetrazol-5-yl)phenyl]thiophene-2-sulfonamide] the figure was 660 nM; with `Cc1c(S(=O)(=O)Nc2cccc(-c3nnn[nH]3)c2)sc2ccc(F)cc12` [Example 43, 5-Fluoro-3-methyl-N-[3-(1H-tetrazol-5-yl)phenyl]-1-benzothiophene-2-sulfonamide], 170 nM.
Still for that read-out and setting: in the case of `COc1ccc(-c2ccc(S(=O)(=O)Nc3cccc(-c4nnn[nH]4)c3)cc2)cc1` [Example 85, 4′-Methoxy-N-[3-(1H-tetrazol-5-yl)phenyl]biphenyl-4-sulfonamide] it was 3720 nM; in that of `Cc1ccc(-c2ccc(S(=O)(=O)Nc3cccc(-c4nnn[nH]4)c3)s2)cc1` [Example 27, 5-(4-Methylphenyl)-N-[3-(1H-tetrazol-5-yl)phenyl]thiophene-2-sulfonamide], 480 nM; in that of `Cc1ccc2sc(S(=O)(=O)Nc3cccc(-c4nnn[nH]4)c3)cc2c1` [Example 40, 5-Methyl-N-[3-(1H-tetrazol-5-yl)phenyl]-1-benzothiophene-2-sulfonamide], 140 nM.
In the case of `O=S(=O)(Nc1cccc(-c2nnn[nH]2)c1)c1cccc(-c2ccccc2)c1` [Example 16, N-[3-(1H-Tetrazol-5-yl)phenyl]biphenyl-3-sulfonamide], the midpoint of inhibition, the IC50, lay at 390 nM.
Still for that read-out and setting: with `O=S(=O)(Nc1cccc(-c2nnn[nH]2)c1)c1ccc(-c2ccccc2Cl)s1` [Example 26, 5-(2-Chlorophenyl)-N-[3-(1H-tetrazol-5-yl)phenyl]thiophene-2-sulfonamide] the figure was 750 nM.
The same measure, in the same setting: in the case of `O=S(=O)(Nc1cccc(-c2nnn[nH]2)c1)c1c(Cl)cc(C(F)(F)F)cc1Cl` [Example 18, 2,6-Dichloro-N-[3-(1H-tetrazol-5-yl)phenyl]-4-(trifluoromethyl)benzenesulfonamide] it was 510 nM; in that of `COc1ccccc1-c1ccc(S(=O)(=O)Nc2cccc(-c3nnn[nH]3)c2)s1` [Example 24, 5-(2-Methoxyphenyl)-N-[3-(1H-tetrazol-5-yl)phenyl]thiophene-2-sulfonamide], 660 nM; in that of `O=S(=O)(Nc1cccc(-c2nnn[nH]2)c1)c1ccc(-c2ccc(F)cc2F)s1` [Example 101, 5-(2,4-Difluorophenyl)-N-[3-(1H-tetrazol-5-yl)phenyl]thiophene-2-sulfonamide], 600 nM.
Still for that read-out and setting: with `Cc1c(S(=O)(=O)Nc2cccc(C(=O)O)c2)sc2c(Cl)cccc12` [Example 44, 3-{[(7-Chloro-3-methyl-1-benzothien-2-yl)sulfonyl]amino}benzoic acid] the figure was 200 nM.
As for `CSc1nccc(-c2ccc(S(=O)(=O)Nc3cccc(-c4nnn[nH]4)c3)s2)n1` [Example 21, 5-[2-(Methylthio)pyrimidin-4-yl]-N-[3-(1H-tetrazol-5-yl)phenyl]thiophene-2-sulfonamide], the IC50 came to 420 nM.
On the same count and under the same terms, with `Cc1c(S(=O)(=O)Nc2ncc(C(=O)O)s2)sc2ccc(C(C)C)cc12` [Example 7, 2-{[(5-Isopropyl-3-methyl-1-benzothien-2-yl)sulfonyl]amino}-1,3-thiazole-5-carboxylic acid] the figure was 100 nM; with `Cc1c(S(=O)(=O)Nc2cccc(C(=O)O)c2O)sc2ccc(Cl)cc12` [Example 134, 3-{[(5-Chloro-3-methyl-1-benzothiophen-2-yl)sulfonyl]amino}-2-hydroxybenzoic acid], 180 nM; with `O=S(=O)(Nc1cccc(-c2nnn[nH]2)c1)c1ccc(Br)cc1F` [Example 57, 4-Bromo-2-fluoro-N-[3-(1H-tetrazol-5-yl)phenyl]benzenesulfonamide], 1830 nM.

The next test deals with PANC-1 cells. The test can be described thus: Quantification of F-2,6-P2 in PANC-1 cells. The test is classed as cell-based. The note with it: Homo sapiens, PANC-1; read-out: IC50 based on quantification of F-2,6-P2. An excerpt:
The relative kinase (formation) and phosphatase (degradation) activities of the bi-functional enzymes PFKFB3 and PFKFB4 control the intracellular levels of the regulator F-2,6-P2, which acts as an allosteric activator of glycolysis. The levels of F-2,6-P2 have been determined in three different cancer cell lines (MCF-7, PANC-1 and NUGC-3) using the van Shaftingen assay. The assay protocols described under “Methods for measurement of enzymatic activity of PFKFB3 and PFKFB4, Method A” have been adapted for the measurement of the inhibitory effect of compounds on the kinase activity of the various isoforms of the bifunctional enzyme (endogenously expressed) in the different cell lines. The modifications are described in the protocol below. All reagents were purchased from commercial sources or prepared inhouse.
Cell Line B (PANC-1, Human Pancreatic Carcinoma Cell Line)
• Cells: PANC-1 (ATCC-CRL-1469). Lot. no: 58564651. • Growth medium: Dulbecco's Modified Eagle's Medium, DMEM, ATCC-30-2002 10% FBS, Invitrogen, 10106-169
Cells were seeded at a concentration of 250 000 cells/mL in 100 μL growth medium (25 000 cells/well)
Starvation medium: DMEM/F12 without phenol red and glucose free, SVA, 991373 0.25% FBS, Invitrogen, 10106-169
Induction medium: DMEM/F12 without phenol red and glucose free, SVA, 991373 0.25% FBS, Invitrogen, 10106-169 (same as starvation medium)
Cells were seeded in 96-well Corning Costar tissue culture plates (CLS3595, Sigma-Aldrich) using the concentrations specified above for the three different cell lines A-C and incubated over night at 37° C. and 5% CO2. Row A was left empty. Next day the growth medium was discarded and replaced with 100 μL starvation medium. The plates were incubated for 18 h at 37° C. and 5% CO2. After 18 h of starvation the cells were induced with 100 μL compound or control solutions. Compounds were either tested in two concentrations (50 μM and 10 μM) or in dose response curves starting from 50 μM and the final DMSO concentration in assay plates was 0.5%. Also a dose response curve of a reference inhibitor was included in row H on each plate. All compounds were tested in duplicate plates. Compounds (in 96 well CLS 3365, Sigma-Aldrich) were serial diluted in DMSO from 10 mM compound DMSO stock solutions with Janus (automated liquid handling workstation from PerkinElmer). 5 μL were transferred to a Greiner deep well plate (736-0155, VWR) with 495 μL starvation medium. The final start concentration of compounds in the dilution plate was 100 μM, 1% DMSO. For compounds tested as single points, 10 mM compound solutions were diluted five fold in DMSO to 2 mM, followed by the transfer of 5 μL to separate dilution plates with 495 μL starvation medium. The final concentration of compounds in these dilution plates were 100 or 20 μM, respectively, and final concentration of DMSO was 1%. The plates were incubated at 37° C. and 5% CO2 for 1 h, followed by the addition of 10 μL 20 mM D-glucose in starvation medium. Controls, with and without 1 mM glucose, were included in row B. The final assay volume was 210 μL per well. After 2 h of incubation at 37° C. and 5% CO2, supernatants were discarded and the cells were lysed by the addition of 25 μL 250 mM NaOH. The plates were incubated at 37° C. and 5% CO2 for 5 min followed by an addition of 75 μL MilliQ dH2O. The supernatants were further diluted with 210 μL MilliQ dH2O to a final concentration of 20 mM NaOH. 200 μL were transferred to NUNC 96-well plates (7322661, VWR) and the plates were sealed and stored at −20° C. until analysis.
The amount of F-2,6-P2 was quantified based on the coupled enzymatic reaction described by Van Schaftingen. If necessary the samples were further diluted in 20 mM NaOH before quantification. Plates stored at −20° C. were thawed and the F-2,6-P2 quantification was initiated by transferring 40 μL from each well of the NUNC plate to the corresponding position in a trans-parent 96-well SpectraPlate-MB (6005649, PerkinElmer). […]
`Cc1ccc(-c2ccc(S(=O)(=O)Nc3cccc(-c4nnn[nH]4)c3)s2)cc1` [Example 27, 5-(4-Methylphenyl)-N-[3-(1H-tetrazol-5-yl)phenyl]thiophene-2-sulfonamide]: the IC50 turned out to be 13800 nM.
As to `COc1ccccc1-c1ccc(S(=O)(=O)Nc2cccc(-c3nnn[nH]3)c2)s1` [Example 24, 5-(2-Methoxyphenyl)-N-[3-(1H-tetrazol-5-yl)phenyl]thiophene-2-sulfonamide], the IC50 worked out at 11000 nM.

What is called IC50 is the concentration that inhibits the measured activity by half.

These data come from patent US9233946B2, “Sulfonamide compounds” (KANCERA AB, priority 2010, dated 2016).
